Experiment: Observation of polymerization (viscosity increase) of oleic acid with/without fumed silica and air
Assay type: physicochemical
From the text: We can conclude that it is the addition of fumed silica to the oleic acid formula which is responsible for promoting this polymerization reaction. […] Based on chemical fundamentals we theorize that it is the fumed silica's high surface area that acts as the catalyst to increase the reaction between the oleic acid and oxygen in the air to promote oxidation, resulting in cross-linking, resulting in polymerization, resulting in an increase in viscosity and hardening. Since only some of the oleic acid molecules participate in this polymerization reaction, the rest of the oleic acid in the gel formulation is free to still act as an effective repellent.

- Polymerization (Exposure to Air: Yes): No
- increase in viscosity (polymerization) (exposed to air, temperatures normally encountered in the environment): no substantial increase in viscosity
Compound: CCCCCCCC/C=C\CCCCCCCC(=O)O [Oleic Acid, oleic acid]

— patent US20220053777A1, “NON-TOXIC ANT-REPELLING GEL” (priority 2013, published 2022)
